Measured values: PubChem BioAssay AID1224920 (Broad Institute, 2016)
“And” between values parts separate entries of the source, which are not always exact repeats. Equal entries are not always repeated. The source made the active and inactive calls.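 The calls were made as follows: active = IC50 no higher than ten times the top tested dose; inconclusive = flat fit with 30 to 70% inhibition, or poor fit; inactive = IC50 above ten times the top dose.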

Tested on: Clostridium difficile clinical isolate growth, OD600, 24 h
Assay: growth modulation of Clostridium difficile isolate – OD600, 9-point, retest, dose response (AID 1224920);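 also: inhibitors lower culture turbidity so OD600 falls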

Row | Compound | IC50
1 | COc1ccc(C#Cc2ccc([C@@H]3[C@@H](CO)N4CCCCN(C(=O)Nc5ccc(F)cc5)C[C@H]34)cc2)cc1 | 20.6 µM
2 | C[C@@H]1CN([C@@H](C)CO)C(=O)c2ccccc2-c2ccccc2CO[C@H]1CN(C)Cc1ccccc1C(F)(F)F | > 270 µM (inactive)
3 | O=C(C[C@@H]1CC[C@@H]2[C@H](COC[C@H](O)CN2C(=O)Nc2ccc(C(F)(F)F)cc2)O1)NC1Cc2ccccc2C1 | 17.5 µM
4 | CCCN(C)C[C@@H]1OCCCC[C@@H](C)Oc2ccc(NC(=O)Nc3ccc(C(F)(F)F)cc3)cc2C(=O)N([C@H](C)CO)C[C@H]1C | 31.6 µM
5 | O=C(C1CC1)N1C[C@@H]2N[C@H](C1)C2c1ccc(/C=C/c2ccccc2)cc1 (stereo partly drawn) | 70.3 µM
6 | O=C(Nc1ccc(F)cc1)N1CCCCN2[C@@H](CO)[C@@H](c3ccc(-c4cccc(F)c4)cc3)[C@@H]2C1 | 13.2 µM
7 | O=C(Nc1ccc(F)cc1)N1[C@@H]2CNC[C@H]1C2c1ccc(-c2ccccc2)cc1 (stereo partly drawn) | 83.6 µM
8 | Fc1cccc(-c2ccc([C@@H]3[C@@H]4CN(Cc5nccs5)C[C@H]3N4)cc2)c1 | 66.3 µM
9 | COc1cccc(-c2ccc(C3[C@@H]4CN(S(=O)(=O)c5ccccc5C)C[C@H]3N4)cc2)c1 (stereo partly drawn) | 29.1 µM
10 | O=C(Nc1ccc(F)cc1)N1[C@@H]2CNC[C@H]1C2c1ccc(/C=C/c2ccccc2)cc1 (stereo partly drawn) | 13.8 µM
11 | COc1ccc(-c2ccc(C3[C@@H]4CN(Cc5ccccn5)C[C@H]3N4)cc2)cc1 (stereo partly drawn) | 70.1 µM
12 | Fc1cccc(CN2C[C@@H]3N[C@H](C2)C3c2ccc(/C=C/c3ccccc3)cc2)c1 (stereo partly drawn) | 1.8 µM and 4.45 µM
13 | COc1cccc(-c2ccc(C3[C@H]4CNC[C@@H]3N4Cc3ccc4c(c3)OCO4)cc2)c1 (stereo partly drawn) | 30.1 µM
14 | O=C(Nc1ccc2c(c1)OCO2)N1C[C@@H]2N[C@H](C1)C2c1ccc(C=Cc2ccccc2)cc1 (stereo partly drawn) | 28.3 µM
15 | Cc1ccccc1-c1ccc([C@H]2[C@H](CO)N3CCCCN(C(=O)Nc4cccc(F)c4)C[C@@H]23)cc1 | 29.1 µM
16 | Cc1ccccc1-c1ccc(C2[C@H]3CNC[C@@H]2N3S(=O)(=O)c2ccc(Cl)cc2)cc1 (stereo partly drawn) | 35.8 µM
17 | COc1cccc(C#Cc2ccc3c(c2)[C@@H]2[C@@H](CCN2C(=O)c2ccccc2F)[C@@H](CO)N3C)c1 | 27.7 µM

Row | Compound | IC50
18 | COc1ccc(C#Cc2ccc([C@H]3[C@@H](CO)N4CCCCN(C(=O)Nc5cccc(F)c5)C[C@H]34)cc2)cc1 | 4.44 µM
19 | O=C(C[C@@H]1CC[C@H]2[C@@H](COC[C@@H](O)CN2C(=O)Nc2ccc(C(F)(F)F)cc2)O1)NCC1CCCCC1 | 7.5 µM
20 | O=C(Nc1ccc(C(F)(F)F)cc1)N1C[C@@H]2N[C@H](C1)C2c1ccc(-c2ccccc2)cc1 (stereo partly drawn) | 3.18 µM and 4.52 µM
21 | COc1ccccc1C#Cc1ccc2c(c1)[C@H]1[C@H](CCN1C(=O)c1ccc(F)cc1)[C@@H](CO)N2 | < 0.5 µM
22 | COc1ccccc1CN1CC[C@@H]2[C@H]1c1cc(C3=CCCCC3)ccc1N[C@@H]2CO | 74.5 µM
23 | Cc1ccc(-c2ccc([C@@H]3[C@H](CO)N4CCCCN(C(=O)c5ccc(F)cc5)C[C@@H]34)cc2)cc1 | 24.3 µM
24 | OC[C@H]1Nc2ccc(-c3ccccc3)cc2[C@@H]2[C@H]1CCN2Cc1ccccc1F | 129 µM
25 | Cc1ccc(-c2ccc(C3[C@H]4CNC[C@@H]3N4S(=O)(=O)c3cccc(C)c3)cc2)cc1 (stereo partly drawn) | 30.3 µM
26 | COc1cccc(-c2ccc(C3[C@@H]4CN(S(=O)(=O)Cc5ccccc5)C[C@H]3N4)cc2)c1 (stereo partly drawn) | 52.6 µM
27 | O=C(C[C@@H]1CC[C@@H]2[C@H](COC[C@H](O)CN2C(=O)Nc2ccc(Cl)c(Cl)c2)O1)NC1CCC1 | 20.3 µM
28 | Cc1ccc(-c2ccc([C@@H]3[C@@H](CO)N4CCCCN(C(=O)c5ccc(F)cc5)C[C@H]34)cc2)cc1 | 34.4 µM
29 | N#Cc1cccc(-c2ccc(C3[C@H]4CNC[C@@H]3N4Cc3cccc(F)c3)cc2)c1 (stereo partly drawn) | 55.7 µM
30 | COc1cccc(CN2C[C@@H]3N[C@H](C2)C3c2ccc(-c3ccccc3OC)cc2)c1 (stereo partly drawn) | 34.1 µM
31 | COc1ccc(S(=O)(=O)N2[C@@H]3CNC[C@H]2C3c2ccc(-c3cccc(C)c3)cc2)cc1 (stereo partly drawn) | 83 µM
32 | Cc1ccc(-c2ccc([C@@H]3[C@H](CO)N4CCCCN(S(=O)(=O)c5cccc(C)c5)C[C@@H]34)cc2)cc1 | 18.2 µM
33 | O=C(NC[C@H]1N[C@H](CO)[C@@H]1c1ccc(C2=CCCCC2)cc1)c1cccc(F)c1 | 58.8 µM
